Data on 18 molecules can be found in US10259810B2, “N-sulfonylated pyrazolo[3,4-b]pyridin-6-carboxamides and method of use” (AbbVie S.à.r.l., priority 2015, dated 2019).

In experiment [1] the target is T1, ΔF508-CFTR (Homo sapiens, UniProt P13569, DEL508-508).
T1 construct: host or cells: CFBE41o-, doxycycline-inducible
In words: CFTR cell surface levels using HRP-tagged ΔF508-CFTR expressing CFBE cells, in the presence of a co-corrector. The format is cell-based. Put shortly:
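Chemiluminescent read-out of surface HRP (15 min, dark) after PBS washes. Activity is normalized as 100×(sample−DMSO)/(3 μM co-corrector alone−DMSO).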

The target in experiment [2] is T1, ΔF508-CFTR. In words: CFTR cell surface levels using HRP-tagged ΔF508-CFTR expressing CFBE cells, intrinsic corrector capacity. Also noted: % Activation: concentration or dose not given beside the values. The format is cell-based. Summed up: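 Surface ΔF508-CFTR was measured as HRP chemiluminescence from an extracellular-loop-4 tag, expressed as percent activity between DMSO and a […] corrector control.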

Setting [3] is: HRP-tagged ΔF508-CFTR CFBE cells, in the presence of 3 μM co-corrector.
Where [4] appears, read: HRP-tagged ΔF508-CFTR CFBE cells, in the presence of 3 μM co-corrector, read-out: EC50.
[5] abbreviates: HRP-tagged ΔF508-CFTR expressing CFBE41o- cells, compound alone (intrinsic corrector capacity), 20 hours at 33° C.
Where [6] appears, read: HRP-tagged ΔF508-CFTR expressing CFBE41o- cells, compound alone (intrinsic corrector capacity), 20 hours at 33° C., read-out: EC50.

T1 sequence (P13569 with tags, fused parts or gaps DEL508-508): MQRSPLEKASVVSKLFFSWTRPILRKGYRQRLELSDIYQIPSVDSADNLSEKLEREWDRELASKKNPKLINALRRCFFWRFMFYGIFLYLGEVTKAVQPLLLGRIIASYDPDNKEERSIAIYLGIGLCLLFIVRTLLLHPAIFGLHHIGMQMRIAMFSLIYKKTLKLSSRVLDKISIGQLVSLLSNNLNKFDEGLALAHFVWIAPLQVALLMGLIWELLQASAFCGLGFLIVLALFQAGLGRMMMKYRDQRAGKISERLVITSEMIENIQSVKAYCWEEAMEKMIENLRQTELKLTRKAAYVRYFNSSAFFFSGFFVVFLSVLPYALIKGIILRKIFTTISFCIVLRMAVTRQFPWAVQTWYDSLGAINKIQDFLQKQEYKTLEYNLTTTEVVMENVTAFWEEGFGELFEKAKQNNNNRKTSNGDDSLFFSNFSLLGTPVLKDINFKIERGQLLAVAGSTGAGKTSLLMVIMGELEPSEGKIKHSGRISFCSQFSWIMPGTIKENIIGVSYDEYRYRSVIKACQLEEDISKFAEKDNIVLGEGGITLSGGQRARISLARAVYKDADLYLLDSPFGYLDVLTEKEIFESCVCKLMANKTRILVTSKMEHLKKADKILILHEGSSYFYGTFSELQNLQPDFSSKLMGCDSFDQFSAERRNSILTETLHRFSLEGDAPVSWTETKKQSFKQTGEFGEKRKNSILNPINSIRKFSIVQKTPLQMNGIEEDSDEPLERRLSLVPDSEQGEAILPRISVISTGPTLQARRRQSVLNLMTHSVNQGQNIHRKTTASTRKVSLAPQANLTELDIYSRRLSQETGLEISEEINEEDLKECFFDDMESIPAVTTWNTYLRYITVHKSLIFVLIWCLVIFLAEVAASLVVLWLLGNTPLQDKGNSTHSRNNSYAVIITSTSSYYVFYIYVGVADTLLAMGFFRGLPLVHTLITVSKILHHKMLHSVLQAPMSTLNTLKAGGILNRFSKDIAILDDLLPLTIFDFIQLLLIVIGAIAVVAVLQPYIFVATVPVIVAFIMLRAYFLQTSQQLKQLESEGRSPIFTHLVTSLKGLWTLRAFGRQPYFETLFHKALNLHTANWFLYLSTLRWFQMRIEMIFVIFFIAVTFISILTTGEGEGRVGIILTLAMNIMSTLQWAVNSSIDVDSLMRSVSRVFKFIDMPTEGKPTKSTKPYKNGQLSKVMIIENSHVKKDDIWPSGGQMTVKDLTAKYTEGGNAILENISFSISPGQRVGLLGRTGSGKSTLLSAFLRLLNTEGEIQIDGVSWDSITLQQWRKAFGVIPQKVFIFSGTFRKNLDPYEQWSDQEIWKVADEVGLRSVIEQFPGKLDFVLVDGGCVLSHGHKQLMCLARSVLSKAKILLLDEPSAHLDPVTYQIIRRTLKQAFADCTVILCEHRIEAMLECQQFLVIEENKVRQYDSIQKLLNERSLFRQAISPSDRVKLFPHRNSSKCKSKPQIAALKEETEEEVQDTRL

For the molecule `COCC1CCN(c2cc(C(=O)NS(=O)(=O)CC(C)C)nc3c2c(C2CCC2)nn3-c2ccccc2)CC1` [Compound 375, 3-cyclobutyl-4-[4-(methoxymethyl)piperidin-1-yl]-N-(2-methylpropane-1-sulfonyl)-1-phenyl-1H-pyrazolo[3,4-b]pyridine-6-carboxamide], the “% Activation” value on ΔF508-CFTR [1] (setting [3]) came out at 546.75%; on ΔF508-CFTR [2] (setting [5]) it was 321.6%. Further, the concentration for a half-maximal effect (EC50) came out at 241 nM on ΔF508-CFTR [1] (setting [4]) and 571 nM on ΔF508-CFTR [2] (setting [6]).

Turning to `COCC1CCN(c2cc(C(=O)NS(=O)(=O)CC(=O)OC)nc3c2c(C2CCC2)nn3-c2ccccc2)CC1` [Compound 376, methyl ({3-cyclobutyl-4-[4-(methoxymethyl)piperidin-1-yl]-1-phenyl-1H-pyrazolo[3,4-b]pyridine-6-carbonyl}sulfamoyl)acetate], the “% Activation” value at ΔF508-CFTR [1] (setting [3]) was 496.8%; at ΔF508-CFTR [2] (setting [5]) it was 355.7%. Further, the EC50 on ΔF508-CFTR [1] (setting [4]) amounted to 51.6 nM; on ΔF508-CFTR [2] (setting [6]), 117 nM.

Consider `COCC1CCN(c2cc(C(=O)NS(=O)(=O)C3CCN(C(=O)OCc4ccccc4)C3)nc3c2c(C2CCC2)nn3-c2ccccc2)CC1` (stereo not shown) [Compound 377, benzyl 3-({3-cyclobutyl-4-[4-(methoxymethyl)piperidin-1-yl]-1-phenyl-1H-pyrazolo[3,4-b]pyridine-6-carbonyl}sulfamoyl)pyrrolidine-1-carboxylate], for which the “% Activation” value at ΔF508-CFTR [1] (setting [3]) is recorded as 485.55%; on ΔF508-CFTR [2] (setting [5]), 261.3%. Besides, the EC50 amounted to 103 nM at ΔF508-CFTR [1] (setting [4]) and 129 nM on ΔF508-CFTR [2] (setting [6]).

For `CC(C)c1nn(-c2ccc(F)cc2)c2nc(C(=O)NS(C)(=O)=O)cc(C3CCN(C(=O)OC(C)(C)C)CC3)c12` [Compound 378, tert-butyl 4-[1-(4-fluorophenyl)-6-[(methanesulfonyl)carbamoyl]-3-(propan-2-yl)-1H-pyrazolo[3,4-b]pyridin-4-yl]piperidine-1-carboxylate], the “% Activation” value on ΔF508-CFTR [1] (setting [3]) came out at 318.6%; at ΔF508-CFTR [2] (setting [5]), 160%. Also, the EC50 at ΔF508-CFTR [1] (setting [4]) came out at 658 nM; at ΔF508-CFTR [2] (setting [6]) it was 1330 nM.

For the molecule `O=C(NS(=O)(=O)N1CCOCC1)c1cc(N2CCC(CN3CCCC3)CC2)c2c(C3CCC3)nn(-c3ccccc3)c2n1` [Compound 380, 3-cyclobutyl-N-(morpholine-4-sulfonyl)-1-phenyl-4-{4-[(pyrrolidin-1-yl)methyl]piperidin-1-yl}-1H-pyrazolo[3,4-b]pyridine-6-carboxamide], the values for the EC50 at ΔF508-CFTR [1] and at ΔF508-CFTR [2] were 127 nM and 279 nM, respectively. Besides, the “% Activation” value on ΔF508-CFTR [1] (setting [3]) amounted to 309.17%; on ΔF508-CFTR [2] (setting [5]), 131.7%.

With `O=C(NS(=O)(=O)N1CCOCC1)c1cc(N2CCC(N3CCOCC3)CC2)c2c(C3CCC3)nn(-c3ccccc3)c2n1` [Compound 383, 3-cyclobutyl-N-(morpholine-4-sulfonyl)-4-[4-(morpholin-4-yl)piperidin-1-yl]-1-phenyl-1H-pyrazolo[3,4-b]pyridine-6-carboxamide], the “% Activation” value was determined as 412.20% on ΔF508-CFTR [1] (setting [3]) and 202.9% on ΔF508-CFTR [2] (setting [5]).

On to `COCC1CCN(c2cc(C(=O)NS(=O)(=O)CC(N)=O)nc3c2c(C2CCC2)nn3-c2ccccc2)CC1` [Compound 384, N-(2-amino-2-oxoethanesulfonyl)-3-cyclobutyl-4-[4-(methoxymethyl)piperidin-1-yl]-1-phenyl-1H-pyrazolo[3,4-b]pyridine-6-carboxamide], for which the entries for the “% Activation” value at ΔF508-CFTR [1] (setting [3]) and at ΔF508-CFTR [2] (setting [5]) were 391.35% and 228%, respectively. Also, the figures for the 50% effective concentration (EC50) at ΔF508-CFTR [1] (setting [4]) and at ΔF508-CFTR [2] (setting [6]) were 1440 nM and 2860 nM, respectively.

Turning to `COCC1CCN(c2cc(C(=O)NS(=O)(=O)CCNC(C)=O)nc3c2c(C2CCC2)nn3-c2ccccc2)CC1` [Compound 386, N-(2-acetamidoethanesulfonyl)-3-cyclobutyl-4-[4-(methoxymethyl)piperidin-1-yl]-1-phenyl-1H-pyrazolo[3,4-b]pyridine-6-], the “% Activation” value at ΔF508-CFTR [1] (setting [3]) is recorded as 385.05%; on ΔF508-CFTR [2] (setting [5]) it was 237.85%. The half-maximal effective concentration (EC50) came out at 685 nM on ΔF508-CFTR [1] (setting [4]) and 2120 nM at ΔF508-CFTR [2] (setting [6]).

Take `COCC1CCN(c2cc(C(=O)NS(=O)(=O)C3CCNC3)nc3c2c(C2CCC2)nn3-c2ccccc2)CC1` (stereo not shown) [Compound 387, 3-cyclobutyl-4-[4-(methoxymethyl)piperidin-1-yl]-1-phenyl-N-(pyrrolidine-3-sulfonyl)-1H-pyrazolo[3,4-b]pyridine-6-carboxamide]: the “% Activation” value on ΔF508-CFTR [1] (setting [3]) was found to be 168.9%; on ΔF508-CFTR [2] (setting [5]), 60.58%. In addition, the concentration for a half-maximal effect (EC50) on ΔF508-CFTR [1] (setting [4]) amounted to 161 nM; on ΔF508-CFTR [2] (setting [6]), 462 nM.

As for `COCC1CCN(c2cc(C(=O)NS(=O)(=O)N3CCC(N4CCCC4)CC3)nc3c2c(C2CCC2)nn3-c2ccccc2)CC1` [Compound 388, 3-cyclobutyl-4-[4-(methoxymethyl)piperidin-1-yl]-1-phenyl-N-[4-(pyrrolidin-1-yl)piperidine-1-sulfonyl]-1H-pyrazolo[3,4-b]pyridine-6-carboxamide], the figures for the concentration giving a half-maximal response (EC50) at ΔF508-CFTR [1] and on ΔF508-CFTR [2] were 196 nM and 218 nM, respectively. Besides, the “% Activation” value at ΔF508-CFTR [1] (setting [3]) is reported as 364.5%; at ΔF508-CFTR [2] (setting [5]), 192.8%.

Consider `COCC1CCN(c2cc(C(=O)NS(=O)(=O)N3CCC[C@H]3C(=O)N3CCN(C)CC3)nc3c2c(C2CCC2)nn3-c2ccccc2)CC1` [Compound 389, 3-cyclobutyl-4-[4-(methoxymethyl)piperidin-1-yl]-N-[(2S)-2-(4-methylpiperazine-1-carbonyl)pyrrolidine-1-sulfonyl]-1-phenyl-1H-pyrazolo[3,4-b]pyridine-6-carboxamide], for which the “% Activation” value stood at 305.1% at ΔF508-CFTR [1] (setting [3]) and 165% on ΔF508-CFTR [2] (setting [5]). Further, the concentration for a half-maximal effect (EC50) on ΔF508-CFTR [1] (setting [4]) was 297 nM; on ΔF508-CFTR [2] (setting [6]), 556 nM.

Regarding `COCC1CCN(c2cc(C(=O)NS(=O)(=O)N3CCC(N4CCC[C@H]4COC)CC3)nc3c2c(C2CCC2)nn3-c2ccccc2)CC1` [Compound 390, 3-cyclobutyl-4-[4-(methoxymethyl)piperidin-1-yl]-N-{4-[(2S)-2-(methoxymethyl)pyrrolidin-1-yl]piperidine-1-sulfonyl}-1-phenyl-1H-pyrazolo[3,4-b]pyridine-6-carboxamide], the entries for the “% Activation” value on ΔF508-CFTR [1] (setting [3]) and at ΔF508-CFTR [2] (setting [5]) were 350.17% and 188.2%, respectively. Further, the concentration giving a half-maximal response (EC50) on ΔF508-CFTR [1] (setting [4]) stood at 140 nM; at ΔF508-CFTR [2] (setting [6]), 177 nM.

As for `CCCN(C)S(=O)(=O)NC(=O)c1cc(N2CCC(COC)CC2)c2c(C3CCC3)nn(-c3ccccc3)c2n1` [Compound 391, 3-cyclobutyl-4-[4-(methoxymethyl)piperidin-1-yl]-N-[methyl(propyl)sulfamoyl]-1-phenyl-1H-pyrazolo[3,4-b]pyridine-6-carboxamide], the “% Activation” value on ΔF508-CFTR [1] (setting [3]) is on record as 441.15%; at ΔF508-CFTR [2] (setting [5]), 247.7%. Moreover, the results for the EC50 at ΔF508-CFTR [1] (setting [4]) and on ΔF508-CFTR [2] (setting [6]) were 85.5 nM and 77.1 nM, respectively.

Turning to `CCCN(CC)S(=O)(=O)NC(=O)c1cc(N2CCC(COC)CC2)c2c(C3CCC3)nn(-c3ccccc3)c2n1` [Compound 392, 3-cyclobutyl-N-[ethyl(propyl)sulfamoyl]-4-[4-(methoxymethyl)piperidin-1-yl]-1-phenyl-1H-pyrazolo[3,4-b]pyridine-6-carboxamide], the “% Activation” value at ΔF508-CFTR [1] (setting [3]) came to 421.4%; at ΔF508-CFTR [2] (setting [5]) it was 240.05%. For the same molecule, the EC50 amounted to 139 nM on ΔF508-CFTR [1] (setting [4]) and 150 nM on ΔF508-CFTR [2] (setting [6]).

In the case of `CCOC(=O)N1CCC(NS(=O)(=O)NC(=O)c2cc(N3CCC(COC)CC3)c3c(C4CCC4)nn(-c4ccccc4)c3n2)CC1` [Compound 393, ethyl 4-[({3-cyclobutyl-4-[4-(methoxymethyl)piperidin-1-yl]-1-phenyl-1H-pyrazolo[3,4-b]pyridine-6-carbonyl}sulfamoyl)amino]piperidine-1-carboxylate], the “% Activation” value was determined as 533.65% at ΔF508-CFTR [1] (setting [3]) and 423.6% at ΔF508-CFTR [2] (setting [5]). Besides, the half-maximal effective concentration (EC50) at ΔF508-CFTR [1] (setting [4]) came to 20.8 nM; at ΔF508-CFTR [2] (setting [6]) it was 51.4 nM.

Turning to `COCC1CCN(c2cc(C(=O)NS(=O)(=O)N3CCCN(C(C)=O)CC3)nc3c2c(C2CCC2)nn3-c2ccccc2)CC1` [Compound 394, N-(4-acetyl-1,4-diazepane-1-sulfonyl)-3-cyclobutyl-4-[4-(methoxymethyl)piperidin-1-yl]-1-phenyl-1H-pyrazolo[3,4-b]pyridine-6-carboxamide], the “% Activation” value on ΔF508-CFTR [1] (setting [3]) amounted to 366.87%; on ΔF508-CFTR [2] (setting [5]) it was 194.35%. Besides, the EC50 at ΔF508-CFTR [1] (setting [4]) is 47.9 nM; at ΔF508-CFTR [2] (setting [6]), 99.5 nM.

For the molecule `COCC1CCN(c2cc(C(=O)NS(=O)(=O)N3CCC(N4CCC[C@@H]4COC)CC3)nc3c2c(C2CCC2)nn3-c2ccccc2)CC1` [Compound 395, 3-cyclobutyl-4-[4-(methoxymethyl)piperidin-1-yl]-N-{4-[(2R)-2-(methoxymethyl)pyrrolidin-1-yl]piperidine-1-sulfonyl}-1-phenyl-1H-pyrazolo[3,4-b]pyridine-6-carboxamide], the “% Activation” value on ΔF508-CFTR [1] (setting [3]) was 327.95%; at ΔF508-CFTR [2] (setting [5]), 209.2%. In addition, the EC50 at ΔF508-CFTR [1] (setting [4]) is 127 nM; on ΔF508-CFTR [2] (setting [6]) it was 474 nM.

`COCC1CCN(c2cc(C(=O)NS(=O)(=O)N3CCC(C(=O)N4CCN(C)CC4)CC3)nc3c2c(C2CCC2)nn3-c2ccccc2)CC1` [Compound 398, 3-cyclobutyl-4-[4-(methoxymethyl)piperidin-1-yl]-N-[4-(4-methylpiperazine-1-carbonyl)piperidine-1-sulfonyl]-1-phenyl-1H-pyrazolo[3,4-b]pyridine-6-carboxamide]: the “% Activation” value is 324.03% at ΔF508-CFTR [1] (setting [3]) and 173.7% on ΔF508-CFTR [2] (setting [5]). Moreover, the EC50 turned out to be 73.6 nM on ΔF508-CFTR [1] (setting [4]) and 181 nM on ΔF508-CFTR [2] (setting [6]).
